Data on five compounds can be found in article PMC10114980, “Triple targeting of mutant EGFR^L858R/T790M, COX-2, and 15-LOX: design and synthesis of novel quinazolinone tethered phenyl urea derivatives for anti-inflammatory and anticancer evaluation” (Journal of Enzyme Inhibition and Medicinal Chemistry, 2023).

One test relates to SN12C. Kind of test: NCI single dose screen, SN12C. The test is classed as cell-based. As to conditions: Homo sapiens, renal cancer, single dose 10^−5 M, read-out: growth inhibition percentage. The procedure: (§1) Screening of the anticancer activity of the newly synthesised compounds (6a, 6c, 6d, 6e, 6j, 6l, 6m, 6n, 6o, and 6p) was performed by the US National Cancer Institute (NCI) using 60 different human tumour cell lines in accordance with standard procedures formerly reported.
(§2) In vitro anticancer screening was carried out for the selected compounds at a single dose (10^−5 M) against 60 different human tumour cell lines of nine different cancer cell types: leukaemia, lung, colon, CNS, melanoma, ovarian, renal, prostate, and breast cancers.

A further test concerns SK-OV-3. Kind of test: NCI single dose screen, SK-OV-3. The test is classed as cell-based. As to conditions: Homo sapiens; SK-OV-3, ovarian cancer; single dose 10^−5 M; read-out: growth inhibition percentage. The procedure: as §1, §2
The test system of a further test is HOP-92. The experiment in a line: NCI single dose screen, HOP-92. The test is classed as cell-based. As to conditions: Homo sapiens; HOP-92, non-small cell lung cancer; single dose 10^−5 M; read-out: growth inhibition percentage. The method, then: as §1, §2
The test system of a further test is COLO 205. Kind of test: NCI single dose screen, COLO 205. The class given is cell-based. As to conditions: Homo sapiens; COLO 205, colon cancer; single dose 10^−5 M; read-out: growth inhibition percentage. The procedure:
as §1, §2

Another test deals with ACHN. The experiment in a line: NCI single dose screen, ACHN. The test is classed as cell-based. The conditions noted are these: Homo sapiens, renal cancer, single dose 10^−5 M, read-out: growth inhibition percentage. The method, then: as §1, §2
Another test relates to SW-620. The experiment in a line: NCI single dose screen, SW-620. The class given is cell-based. The conditions noted are these: Homo sapiens; SW-620, colon cancer; single dose 10^−5 M; read-out: growth inhibition percentage. The method, then: as §1, §2
The next test has as its system UO-31. The experiment in a line: NCI single dose screen, UO-31. The class given is cell-based. The conditions noted are these: Homo sapiens; UO-31, renal cancer; single dose 10^−5 M; read-out: growth inhibition percentage. The method, then: as §1, §2
Another test concerns KM12. Kind of test: NCI single dose screen, KM12. The test is classed as cell-based. As to conditions: Homo sapiens; KM12, colon cancer; single dose 10^−5 M; read-out: growth inhibition percentage. The method, then: as §1, §2
In another test the test system is SF-295. Kind of test: NCI single dose screen, SF-295. The test is classed as cell-based. As to conditions: Homo sapiens; SF-295, CNS cancer; single dose 10^−5 M; read-out: growth inhibition percentage. The method, then:
as §1, §2

The next test has as its target T1, soybean 15-LOX (Glycine max, UniProt P08170).
T1 sequence (P08170 1-839): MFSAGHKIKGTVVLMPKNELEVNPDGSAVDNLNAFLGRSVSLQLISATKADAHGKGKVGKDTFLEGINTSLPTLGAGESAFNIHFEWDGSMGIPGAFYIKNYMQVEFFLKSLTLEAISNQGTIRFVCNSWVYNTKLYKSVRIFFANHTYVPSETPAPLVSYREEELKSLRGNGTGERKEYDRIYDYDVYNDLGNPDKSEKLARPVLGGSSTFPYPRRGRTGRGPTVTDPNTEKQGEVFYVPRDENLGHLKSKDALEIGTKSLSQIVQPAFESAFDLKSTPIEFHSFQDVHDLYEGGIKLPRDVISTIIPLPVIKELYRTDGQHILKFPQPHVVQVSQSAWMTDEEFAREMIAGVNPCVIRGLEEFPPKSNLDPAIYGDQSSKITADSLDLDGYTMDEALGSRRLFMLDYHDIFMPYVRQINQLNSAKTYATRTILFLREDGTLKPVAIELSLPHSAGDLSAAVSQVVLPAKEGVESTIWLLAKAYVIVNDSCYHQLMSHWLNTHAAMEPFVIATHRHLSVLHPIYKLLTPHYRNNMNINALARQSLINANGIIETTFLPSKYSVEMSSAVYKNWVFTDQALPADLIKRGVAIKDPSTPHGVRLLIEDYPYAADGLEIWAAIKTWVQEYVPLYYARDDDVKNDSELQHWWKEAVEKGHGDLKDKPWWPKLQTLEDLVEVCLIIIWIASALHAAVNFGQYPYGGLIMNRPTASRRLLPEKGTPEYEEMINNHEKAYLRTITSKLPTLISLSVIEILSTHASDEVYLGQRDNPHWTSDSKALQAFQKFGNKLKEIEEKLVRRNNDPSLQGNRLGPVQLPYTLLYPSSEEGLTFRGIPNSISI
Kind of test: 15-LOX inhibitor screening assay (Cayman). The class given is biochemical. As to conditions: mean ± SEM, n = 3 replicates.

In a further test the test system is MOLT-4. The experiment in a line: NCI single dose screen, MOLT-4. The test is classed as cell-based. As to conditions: Homo sapiens; MOLT-4, leukaemia; single dose 10^−5 M; read-out: growth inhibition percentage. The method, then: as §1, §2
The subject of test [1] is 60 NCI cancer cell lines panel. Kind of test: NCI 60 cell lines panel single dose screen, whole panel. The test is classed as cell-based, human. As to conditions: single dose 10^−5 M; for inhibition at 10 µM: Homo sapiens, 60 cell, read-out: growth inhibition percentages range over the sensitive cell lines; for number of cell lines with anticancer activity out of the 60 NCI cell lines: GI higher than 10%. The procedure: as §1, §2

Bounds are passed on as bounds.

In general, inhibition refers to the relative decrease from the control value, in per cent. The IC50 is the concentration needed to halve the response being measured. A high value points to a need for much substance. For the compound `CN1CN(NC(=O)Nc2ccccc2)C(=O)c2ccccc21` [Compound 6a, 1-(1-Methyl-4-oxo-1,4-dihydroquinazolin-3(2H)-yl)-3-phenylurea], the inhibition at 10 µM in the test with SN12C, in the test with SK-OV-3, in the test on HOP-92, in the test with COLO 205, with ACHN and in the test with SW-620 was below 10% in each case. The inhibition at 10 µM with UO-31, in the test with KM12, in the test on SF-295 and with MOLT-4 was below 10% throughout. This compound also had an IC50 against soybean 15-LOX of 1480 ± 270 nM. Besides, the “anticancer activity in the NCI 60 panel (in words)” value in [1] is reported as “did not show any anticancer activities”.
On to `CN1c2ccccc2C(=O)N(NC(=O)Nc2ccc(F)cc2)C1c1ccc([N+](=O)[O-])cc1` (centres unmarked) [Compound 6o, 1-(4-Fluorophenyl)-3–(1-methyl-2-(4-nitrophenyl)-4-oxo-1,4-dihydroquinazolin-3(2H)-yl)urea], for which the inhibition at 10 µM with SN12C, in the test with SK-OV-3, in the test with HOP-92, in the test with COLO 205, in the test with ACHN and in the test with SW-620 was below 10% throughout. In addition, the inhibition at 10 µM was 41.3% in the test with UO-31; below 10% with KM12; below 10% in the test with SF-295; 20.4% in the test on MOLT-4; 10.7 to 41.3% in test [1]. This compound also returned a 50% inhibitory concentration (IC50) on soybean 15-LOX of 1420 ± 230 nM. Also, the “number of cell lines with anticancer activity out of the 60 NCI cell lines” value (“number of cell lines” for short) in test [1] stood at 21.
Turning to `CN1c2ccccc2C(=O)N(NC(=O)Nc2ccc(F)cc2)C1c1ccccc1` (centres unmarked) [Compound 6m, 1-(4-Fluorophenyl)-3-(1-methyl-4-oxo-2-phenyl-1,4-dihydroquinazolin-3(2H)-yl)urea], the inhibition at 10 µM with SN12C, in the test with SK-OV-3, with HOP-92, with COLO 205, in the test on ACHN and with SW-620 was below 10% each time. Further, the inhibition at 10 µM in the test with UO-31 is 40.1%; with KM12 it was below 10%; in the test on SF-295, below 10%; with MOLT-4, 23.5%; in [1] it was 10.5 to 40.1%. Also, the IC50 on soybean 15-LOX is 2230 ± 360 nM. Moreover, the “number of cell lines” value in test [1] amounted to 19.
With `CN1c2ccccc2C(=O)N(NC(=O)Nc2ccc(F)cc2)C1c1ccc(F)cc1` (centres unmarked) [Compound 6n, 1-(4-Fluorophenyl)-3-(2–(4-fluorophenyl)-1-methyl-4-oxo-1,4-dihydroquinazolin-3(2H)-yl)urea], the inhibition at 10 µM in the test on SN12C was below 10%; in the test with SK-OV-3, 22.9%; in the test on HOP-92 it was below 10%; in the test with COLO 205, below 10%; in the test on ACHN, 12.6%; in the test with SW-620, below 10%. The inhibition at 10 µM in the test on UO-31 is 57.1%; with KM12 it was 15.4%; with SF-295, below 10%; in the test on MOLT-4 it was 43.1%; in test [1], 10.1 to 57.1%. For the same compound, half-maximal inhibition at soybean 15-LOX (IC50) required 2000 ± 260 nM. The “number of cell lines” value in test [1] was determined as 32.
With `CC1N(NC(=O)Nc2ccc(F)cc2)C(=O)c2ccccc2N1C` (centres unmarked) [Compound 6l, 1–(1,2-Dimethyl-4-oxo-1,4-dihydroquinazolin-3(2H)-yl)-3-(4-fluorophenyl)urea], the inhibition at 10 µM in the test with SN12C, in the test with SK-OV-3, in the test on HOP-92, in the test on COLO 205, with ACHN and with SW-620 was below 10% each time. Moreover, the inhibition at 10 µM in the test with UO-31, with KM12, in the test with SF-295 and with MOLT-4 was below 10% in each case. On soybean 15-LOX, this compound displayed a half-inhibitory concentration (IC50) of 1580 ± 280 nM.
